Laboratory results: patent US11286236B2, “Compound, agent and composition for the suppression of cancer growth” (Vector Vitale IP LLC, priority 2018, dated 2022)
Structures can show the parent of a compound that is named as a salt.

Legend:
Format in all cases: cell-based
[1] = test system: human Keratinocytes (HaCaT line); test: Metabolic activity of human keratinocytes (HaCaT line)
Protocol: In Vitro Effects of Experimental Compound ^85Rbe-E2 on metabolic activity of human Keratinocytes
(§1) Proliferative and metabolic activity of cells was determined by the colorimetric method.
(§2) The metabolic activity of the cells (i.e., the number of living cells) was assessed by MTT staining.
(§3) 24 hours after the last reagent, the cells were seeded at a concentration of 1×10^4 cells/well in wells of a 96-well plate in complete DMEM nutrient medium with 10% FBS and 40 μg/ml gentamicin. The cells were cultured in a humidified atmosphere at 5% CO2 and 37° C. for 24 hours. After 24 hours, various doses of experimental substances were added to the respective wells. The cells were incubated at 37° C. and 5% CO2 for an additional 72 hours.
(§4) Upon completion of the incubation with the preparations, the proliferative and metabolic activity of the cells in the experiment was evaluated by the colorimetric method by staining MTT cells:
(§5) 10 μl of the MTT solution (5 mg/ml of the dye in phosphate-buffered saline) was added to each well of the plate; the plate was incubated in a CO2 incubator at 37° C. for 3 hours. After that, the medium was removed from the wells, and the formed tetraformazan crystals were dissolved in 100 μl of dimethylsulfoxide.
(§6) When MTT was used, the results were evaluated using a multi-well spectrophotometer at an excitation wavelength of 540 nm. The percentage of viable cells was calculated by the formula: IR=(A540(experiment)/A540(control))×100%.

[2] = test system: Normal Human Fibroblasts; test: Metabolic activity of normal human fibroblasts (MTT assay)
Protocol: In Vitro Assessment of the Effects of Experimental Compound ^85Rbe-E2 on metabolic Activity of Normal Human Fibroblasts (MTT Assay)
In Vitro Assessment of the Effects of E2+^85Rbe on Metabolic Activity of Normal Human Fibroblasts (MTT Assay)
as §1, §2, §3, §4, §5, §6

[3] = test system: Mouse Bone Marrow Cells; test: Cytotoxic/cytostatic effects on mouse bone marrow cells (MTT assay)
Protocol: In Vitro Assessment of Cytotoxic/Cytostatic Effects of Experimental Compound ^85Rbe-E2 on Mouse Bone Marrow Cells
as §1, §2, §3, §4, §5, §6

Structure (SMILES): Cc1ccc(S(=O)(=O)Nc2ccccc2NC(=O)c2ccccc2)cc1 [^85Rbe − E2, ^85Rb-enriched rubidium salt of N-benzoyl-N′-(4-toluenesulfonyl)-o-phenylenediamine]
- Metabolic activity of cells, % ([1]; 8 ng/ml): 114 ± 7.7%
- Metabolic activity of cells, % ([1]; 16 ng/ml): 98 ± 4%
- Metabolic activity of cells, % ([1]; 31 ng/ml): 97.8 ± 3.6%
- Metabolic activity of cells, % ([1]; 62 ng/ml): 90.7 ± 2.7%
- Metabolic activity of cells, % ([1]; 0.13 μg/ml): 95.3 ± 10.7%
- Metabolic activity of cells, % ([1]; 0.25 μg/ml): 100 ± 8.7%
- Metabolic activity of cells, % ([1]; 0.5 μg/ml): 90 ± 1%
- Metabolic activity of cells, % ([1]; 1 μg/ml): 0%
- Metabolic activity of cells, % ([2]; 1.25 μg/ml): 105.1 ± 2.3%
- Metabolic activity of cells, % ([2]; 2.5 μg/ml): 84.4 ± 4.6%
- Metabolic activity of cells, % ([2]; 5 μg/ml): 82.3 ± 3^ %
- Metabolic activity of cells, % ([2]; 10 μg/ml): 82.5 ± 1.3%
- Metabolic activity of cells, % ([2]; 20 μg/ml): 74 ± 1.3%
- Metabolic activity of cells, % ([2]; 38 μg/ml): 68.5 ± 1.8%
- Metabolic activity of cells, % ([2]; 75 μg/ml): 67.4 ± 4.7%
- Metabolic activity of cells, % ([2]; 150 μg/ml): 72.8 ± 2.1%
- Metabolic activity of cells, % ([3]; 1.25 μg/ml): 119.1 ± 0.2%
- Metabolic activity of cells, % ([3]; 2.5 μg/ml): 97.4 ± 1.4%
- Metabolic activity of cells, % ([3]; 5 μg/ml): 90.2 ± 3.3%
- Metabolic activity of cells, % ([3]; 10 μg/ml): 45 ± 4.7%
- Metabolic activity of cells, % ([3]; 20 μg/ml): 24.2 ± 0.8%
- Metabolic activity of cells, % ([3]; 38 μg/ml): 19.1 ± 1.9%
- Metabolic activity of cells, % ([3]; 75 μg/ml): 18.5 ± 0.4%
- Metabolic activity of cells, % ([3]; 150 μg/ml): 0%
